From ChEMBL document CHEMBL3085716, “Hytramycins V and I, anti-Mycobacterium tuberculosis hexapeptides from a Streptomyces hygroscopicus strain” (J Nat Prod, 2013) come the findings set out here.

Converted amounts (≈) assume the structure as drawn.

Test [1] relates to Enterococcus faecalis. As to the kind of experiment: Antibacterial activity against Enterococcus faecalis ATCC 29212 after 16 hrs. To be noted: ATCC 29212, 16 h. The format is functional.
Test [2] deals with Pseudomonas aeruginosa. As to the kind of experiment: Antibacterial activity against Pseudomonas aeruginosa ATCC 27853 after 16 hrs. The format is functional. Conditions: ATCC 27853, 16 h.
The test system of test [3] is Streptococcus pneumoniae. As to the kind of experiment: Antibacterial activity against Streptococcus pneumoniae ATCC 49619 after 20 hrs. The format is functional. To be noted: ATCC 49619, 20 h.
Test [4] deals with Mycobacterium tuberculosis. In words: Antimycobacterial activity against Mycobacterium tuberculosis clinical isolate X005319 under normoxic condition after 7 days by MABA assay. Conditions: clinical isolate X005319, 168 h. The class given is functional. Background: Alamar Blue is a resazurin reagent that responds to reducing activity.
Test [5] concerns Mycobacterium tuberculosis. In words: Antimycobacterial activity against Mycobacterium tuberculosis clinical isolate X003899 under normoxic condition after 7 days by MABA assay. To be noted: clinical isolate X003899, 168 h. The format is functional.
For test [6], the system named is Mycobacterium tuberculosis. In words: Antimycobacterial activity against Mycobacterium tuberculosis H37Rv under normoxic condition after 7 days by MABA assay in presence of 4% bovine serum albumin. Conditions: 168 h. The class given is functional.
Test [7] has as its system Mycobacterium tuberculosis. In words: Antimycobacterial activity against Mycobacterium tuberculosis clinical isolate X004244 under normoxic condition after 7 days by MABA assay. To be noted: clinical isolate X004244, 168 h. The class given is functional.
Test [8] deals with Mycobacterium tuberculosis. As to the kind of experiment: Antimycobacterial activity against Mycobacterium tuberculosis H37Rv under normoxic condition after 7 days by MABA assay. The format is functional. To be noted: for MIC90: Mycobacterium tuberculosis, H37Rv, 168 h.
Test [9] deals with Mycobacterium tuberculosis. In words: Antimycobacterial activity against Mycobacterium tuberculosis clinical isolate X001354 under normoxic condition after 7 days by MABA assay. The format is functional. To be noted: clinical isolate X001354, 168 h.
The subject of test [10] is Mycobacterium tuberculosis. As to the kind of experiment: Antimycobacterial activity against Mycobacterium tuberculosis clinical isolate X005282 under normoxic condition after 7 days by MABA assay. The class given is functional. Conditions: clinical isolate X005282, 168 h.
In test [11] the test system is Mycobacterium tuberculosis. As to the kind of experiment: Antimycobacterial activity against Mycobacterium tuberculosis H37Rv under normoxic condition after 7 days by MABA assay in presence of 10% fetal bovine serum. The format is functional. To be noted: 168 h.
Test [12] relates to Mycobacterium tuberculosis. In words: Antimycobacterial activity against Mycobacterium tuberculosis clinical isolate X004439 under normoxic condition after 7 days by MABA assay. To be noted: clinical isolate X004439, 168 h. The class given is functional.
Test [13] has as its system Candida albicans. As to the kind of experiment: Antifungal activity against Candida albicans ATCC 10231 after 48 hrs. The class given is functional. To be noted: ATCC 10231, 48 h.
The test system of test [14] is Acinetobacter baumannii. In words: Antibacterial activity against Acinetobacter baumannii ATCC BAA-747 after 16 hrs. The format is functional. To be noted: ATCC BAA-747, 16 h.
For test [15], the system named is Staphylococcus aureus. As to the kind of experiment: Antibacterial activity against Staphylococcus aureus ATCC 29213 after 16 hrs. The class given is functional. Conditions: ATCC 29213, 16 h.
In test [16] the test system is Escherichia coli. As to the kind of experiment: Antibacterial activity against Escherichia coli ATCC 25922 after 16 hrs. Conditions: ATCC 25922, 16 h. The class given is functional.
The subject of test [17] is Mycobacterium tuberculosis. In words: Ratio of MIC for Mycobacterium tuberculosis H37Rv under normoxic condition in presence of 4% bovine serum albumin to MIC for Mycobacterium tuberculosis H37Rv under normoxic condition in absence of 4% bovine serum albumin by MABA assay. The format is functional.
Test [18] has as its system Candida albicans. In words: Antifungal activity against Candida albicans ATCC 10231 at 10 ug/ml after 48 hrs. The format is functional. To be noted: ATCC 10231, 48 h.
Test [19] relates to Vero. In words: Cytotoxicity against african green monkey Vero cells. The format is cell-based. Conditions: Chlorocebus sabaeus.
Test [20] deals with Pseudomonas aeruginosa. In words: Antibacterial activity against Pseudomonas aeruginosa ATCC 27853 at 10 ug/ml after 16 hrs. The class given is functional. Conditions: ATCC 27853, 16 h.
For test [21], the system named is Acinetobacter baumannii. As to the kind of experiment: Antibacterial activity against Acinetobacter baumannii ATCC BAA-747 at 10 ug/ml after 16 hrs. The format is functional. To be noted: ATCC BAA-747, 16 h.
Test [22] concerns Escherichia coli. As to the kind of experiment: Antibacterial activity against Escherichia coli ATCC 25922 at 10 ug/ml after 16 hrs. The format is functional. To be noted: ATCC 25922, 16 h.
Test [23] deals with Mycolicibacterium smegmatis. In words: Antimycobacterial activity against Mycobacterium smegmatis ATCC 700084 under normoxic condition after 72 hrs by MABA assay. The class given is functional. To be noted: ATCC 700084, 72 h.
In test [24] the test system is Mycobacterium tuberculosis. As to the kind of experiment: Ratio of MIC for Mycobacterium tuberculosis H37Rv under normoxic condition in presence of 10% fetal bovine serum to MIC for Mycobacterium tuberculosis H37Rv under normoxic condition in absence of 10% fetal bovine serum by MABA assay. The format is functional.

Broadly, the MIC90 is the lowest concentration that inhibits either 90% of growth or 90% of the strains tested, depending on the study. Turning to `CC1COc2c(N3CCN(C)CC3)c(F)cc3c(=O)c(C(=O)O)cn1c23` (stereo not drawn) [OFLOXACIN], the MIC90 in test [1] came out at 2.3 µg/mL (≈ 6.36 µM); in test [2], 1.2 µg/mL (≈ 3.32 µM); in [3], 1.1 µg/mL (≈ 3.04 µM).

For `Cc1ncc([N+](=O)[O-])n1CCO` [METRONIDAZOLE], the MIC90 in [4], in test [5], in test [6], in test [7], in test [8] and in test [9] was greater than 87.6 µg/mL each time. Further, the MIC90 in test [10], in [11] and in [12] was greater than 87.6 µg/mL each time.

`CC(=O)N1CCN(c2ccc(OCC3COC(Cn4ccnc4)(c4ccc(Cl)cc4Cl)O3)cc2)CC1` (stereo not drawn) [KETOCONAZOLE] yielded an MIC90 in test [13] of less than 0.004 µg/mL.

In the case of `C[C@H]1c2cccc(O)c2C(=O)C2=C(O)[C@]3(O)C(=O)C(C(N)=O)=C(O)[C@@H](N(C)C)[C@@H]3[C@@H](O)[C@@H]21.O` [DOXYCYCLINE], in [14], the MIC90 is 0.1 µg/mL.

One may read the inhibition as how much of the control response was suppressed. For orientation: IC50 means the midpoint of a concentration-inhibition curve. Turning to `CC[C@H](C)[C@H]1NC(=O)[C@H](CC(C)C)NC(=O)[C@H]2CCCNN2C(=O)[C@H](C)N(C)C(=O)[C@H]2CCCNN2C(=O)[C@@H]2CCCNN2C1=O`, the MIC90 was 4.8 µg/mL (≈ 7.41 µM) in test [4]; greater than 10 µg/mL in [14]; 4.8 µg/mL (≈ 7.41 µM) in [5]; 4.5 µg/mL (≈ 6.95 µM) in [15]; greater than 10 µg/mL in test [16]; 11.9 µg/mL in [6]. Besides, the MIC90 in [7] was 4.7 µg/mL (≈ 7.26 µM); in test [1], 3.5 µg/mL (≈ 5.4 µM); in test [8], 6 µg/mL (≈ 9.26 µM); in test [9], 4.7 µg/mL (≈ 7.26 µM); in [10], 4.7 µg/mL (≈ 7.26 µM); in [23] it was greater than 10 µg/mL. Moreover, the MIC90 is 9.4 µg/mL in test [11]; greater than 10 µg/mL in [13]; greater than 10 µg/mL in test [2]; 4.4 µg/mL (≈ 6.79 µM) in test [12]; 2.4 µg/mL (≈ 3.7 µM) in test [3]. Moreover, the Ratio in test [17] and in [24] was 2 in each case. Besides, the inhibition at 10 µg/mL in test [18] is 0%; in test [20] it was 10%; in test [21] it was 77%; in [22], 2%. The compound further gave an IC50 in [19] of 7.7 µg/mL (≈ 11.9 µM). In addition, in test [8], the MBC90 stood at 44.2 µg/mL (≈ 68.2 µM).

With `NNC(=O)c1ccncc1` [ISONIAZID], the MIC90 in test [4] is 0.9 µg/mL (≈ 6.56 µM); in test [5], 0.1 µg/mL (≈ 0.729 µM); in test [6], 0.1 µg/mL; in test [7], greater than 1.1 µg/mL; in [8] it was 0.03 µg/mL (≈ 0.219 µM); in test [9], 0.1 µg/mL (≈ 0.729 µM). Besides, the MIC90 is 0.1 µg/mL (≈ 0.729 µM) in [10], 12.7 µg/mL (≈ 92.6 µM) in test [23], 0.04 µg/mL in test [11] and 0.1 µg/mL (≈ 0.729 µM) in [12].

Turning to `CC[C@H]1OC(=O)[C@H](C)[C@@H](O[C@H]2C[C@@](C)(OC)[C@@H](O)[C@H](C)O2)[C@H](C)[C@@H](O[C@@H]2O[C@H](C)C[C@H](N(C)C)[C@H]2O)[C@](C)(O)C[C@@H](C)C(=O)[C@H](C)[C@@H](O)[C@]1(C)O` [ERYTHROMYCIN], the MIC90 amounted to 1.9 µg/mL (≈ 2.59 µM) in test [1] and 0.1 µg/mL (≈ 0.136 µM) in test [3].

`NC[C@H]1O[C@H](O[C@H]2[C@H](O)[C@@H](O[C@H]3O[C@H](CO)[C@@H](O)[C@H](N)[C@H]3O)[C@H](N)C[C@@H]2N)[C@H](O)[C@@H](O)[C@@H]1O` [KANAMYCIN] displayed an MIC90 in test [14] of 0.7 µg/mL (≈ 1.44 µM).

Take `CN[C@@H]1[C@H](O[C@H]2[C@H](O[C@H]3[C@H](O)[C@@H](O)[C@H](N=C(N)N)[C@@H](O)[C@@H]3N=C(N)N)O[C@@H](C)[C@]2(O)C=O)O[C@@H](CO)[C@H](O)[C@H]1O` [STREPTOMYCIN]: the MIC90 in test [4] was 1 µg/mL (≈ 1.72 µM); in [5], 0.2 µg/mL (≈ 0.344 µM); in test [6] it was 0.8 µg/mL; in [7], 0.3 µg/mL (≈ 0.516 µM); in [8], 0.3 µg/mL (≈ 0.516 µM); in [9] it was 0.4 µg/mL (≈ 0.688 µM). The MIC90 was found to be 0.6 µg/mL (≈ 1.03 µM) in [10], 0.1 µg/mL (≈ 0.172 µM) in [23], 0.6 µg/mL in test [11] and 0.3 µg/mL (≈ 0.516 µM) in test [12].

`C[C@@H]1[C@H](O)[C@@H](C)/C=C/C=C/C=C/C=C/C=C/C=C/C=C/[C@H](O[C@@H]2O[C@H](C)[C@@H](O)[C@H](N)[C@@H]2O)C[C@@H]2O[C@](O)(C[C@@H](O)C[C@@H](O)[C@H](O)CC[C@@H](O)C[C@@H](O)CC(=O)O[C@H]1C)C[C@H](O)[C@H]2C(=O)O` [AMPHOTERICIN B]: the MIC90 in [13] turned out to be 0.4 µg/mL (≈ 0.433 µM).
